Entries after “also recorded” stand apart in the source; their conditions may differ.
Legend:
Huh-5-2 cells [1] = test: MTS assay of antimetabolic effect, Huh-5-2; assay type: cell-based; conditions: data not shown
[2] = tested on: genotype 1b HCV subgenomic replicon in Huh-5-2 cells; assay type: cell-based, hepatitis C virus
Huh-5-2 cells [3] = test: microscopic examination of cell morphology in the replicon assay; assay type: cell-based; conditions: 72 h of compound treatment
recombinant NS5BCΔ21 1b = recombinant NS5BCΔ21 1b (Hepatitis C virus genotype 1b, UniProt O92972); test: NS5B primer dependent elongation; assay type: biochemical; conditions: for inhibition at 50 µM: read-out: inhibition of NS5B RdRp activity, screen at 50 μM

For CN1c2c(C(=O)Nc3ccc(NS(C)(=O)=O)cc3)nn(-c3ccccc3Cl)c2-c2ccccc2S1(=O)=O [2c, 1-(2-Chlorophenyl)-4-methyl-N-{4-[(methylsulfonyl)amino]phenyl}-1,4-dihydropyrazolo[4,3-c][1,2]benzothiazine-3-carboxamide 5,5-Dioxide], the “antimetabolic effect after dose–response curve analysis” value (“antimetabolic effect” for short) (Huh-5-2 cells [1]) was “displayed antimetabolic effect”.

In the case of CN1c2c(C(=O)Nc3ccc(NS(C)(=O)=O)cc3)nn(-c3cccc(Br)c3)c2-c2ccccc2S1(=O)=O [2d, 1-(3-Bromophenyl)-4-methyl-N-{4-[(methylsulfonyl)amino]phenyl}-1,4-dihydropyrazolo[4,3-c][1,2]benzothiazine-3-carboxamide 5,5-Dioxide], the “assessment of anti-HCV activity in the replicon assay (in words)” value (shortened to “assessment of anti-HCV activity”) [2] is reported as “selective anti-HCV activity without any antimetabolic effect”.

CN1c2c(C(=O)Nc3ccc(NS(C)(=O)=O)cc3)nn(-c3ccc(Br)cc3)c2-c2ccccc2S1(=O)=O [2e, 1-(4-Bromophenyl)-4-methyl-N-{4-[(methylsulfonyl)amino]phenyl}-1,4-dihydropyrazolo[4,3-c][1,2]benzothiazine-3-carboxamide 5,5-Dioxide] was tested, and the “assessment of anti-HCV activity” value [2] was “selective anti-HCV activity without any antimetabolic effect”.

CN1c2c(C(=O)Nc3ccc(NS(C)(=O)=O)cc3)nn(-c3ccccc3Br)c2-c2ccccc2S1(=O)=O [2f, 1-(2-Bromophenyl)-4-methyl-N-{4-[(methylsulfonyl)amino]phenyl}-1,4-dihydropyrazolo[4,3-c][1,2]benzothiazine-3-carboxamide 5,5-Dioxide] was tested, and the “assessment of anti-HCV activity” value [2] was “false positives”.

Cc1cccc(-n2nc(C(=O)Nc3ccc(NS(C)(=O)=O)cc3)c3c2-c2ccccc2S(=O)(=O)N3C)c1 [2g, 4-Methyl-1-(3-methylphenyl)-N-{4-[(methylsulfonyl)amino]phenyl}-1,4-dihydropyrazolo[4,3-c][1,2]benzothiazine-3-carboxamide 5,5-Dioxide] was tested, and the “assessment of anti-HCV activity” value [2] was “selective anti-HCV activity without any antimetabolic effect”.

In the case of Cc1ccc(-n2nc(C(=O)Nc3ccc(NS(C)(=O)=O)cc3)c3c2-c2ccccc2S(=O)(=O)N3C)cc1 [2h, 4-Methyl-1-(4-methylphenyl)-N-{4-[(methylsulfonyl)amino]phenyl}-1,4-dihydropyrazolo[4,3-c][1,2]benzothiazine-3-carboxamide 5,5-Dioxide], the “assessment of anti-HCV activity” value [2] is reported as “selective anti-HCV activity without any antimetabolic effect” and the “effect on cell morphology (microscopic analysis)” value (Huh-5-2 cells [3]) is reported as “did not display any significant effects on cell morphology; also recorded: did not display any antimetabolic and cell morphology alteration effects”.

With Cc1ccccc1-n1nc(C(=O)Nc2ccc(NS(C)(=O)=O)cc2)c2c1-c1ccccc1S(=O)(=O)N2C [2i, 4-Methyl-1-(2-methylphenyl)-N-{4-[(methylsulfonyl)amino]phenyl}-1,4-dihydropyrazolo[4,3-c][1,2]benzothiazine-3-carboxamide 5,5-Dioxide] the “antimetabolic effect” value (Huh-5-2 cells [1]) was “displayed antimetabolic effect”.

In the case of COc1cccc(-n2nc(C(=O)Nc3ccc(NS(C)(=O)=O)cc3)c3c2-c2ccccc2S(=O)(=O)N3C)c1 [2j, 1-(3-Methoxyphenyl)-4-methyl-N-{4-[(methylsulfonyl)amino]phenyl}-1,4-dihydropyrazolo[4,3-c][1,2]benzothiazine-3-carboxamide 5,5-Dioxide], the “anti-NS5B activity (in words)” value (recombinant NS5BCΔ21 1b) is reported as “inactive” and the inhibition at 50 µM (recombinant NS5BCΔ21 1b) is reported as under 50%.

With COc1ccc(-n2nc(C(=O)Nc3ccc(NS(C)(=O)=O)cc3)c3c2-c2ccccc2S(=O)(=O)N3C)cc1 [2k, 1-(4-Methoxyphenyl)-4-methyl-N-{4-[(methylsulfonyl)amino]phenyl}-1,4-dihydropyrazolo[4,3-c][1,2]benzothiazine-3-carboxamide 5,5-Dioxide] the “anti-NS5B activity (in words)” value (recombinant NS5BCΔ21 1b) was “inactive”, the inhibition at 50 µM (recombinant NS5BCΔ21 1b) was under 50% and the “assessment of anti-HCV activity” value [2] was “selective anti-HCV activity without any antimetabolic effect”. The “effect on cell morphology (microscopic analysis)” value (Huh-5-2 cells [3]) was “did not display any significant effects on cell morphology”.

In the case of CN1c2c(C(=O)Nc3ccc(NS(C)(=O)=O)cc3)nn(-c3cccc(C(F)(F)F)c3)c2-c2ccccc2S1(=O)=O [2l, 4-Methyl-N-{4-[(methylsulfonyl)amino]phenyl}-1-[3-(trifluoromethyl)phenyl]-1,4-dihydropyrazolo[4,3-c][1,2]benzothiazine-3-carboxamide 5,5-Dioxide], the inhibition at 50 µM (recombinant NS5BCΔ21 1b) is reported as at least 50% and the “assessment of anti-HCV activity” value [2] is reported as “selective anti-HCV activity without any antimetabolic effect”.

With CN1c2c(C(=O)Nc3ccc(NS(C)(=O)=O)cc3)nn(-c3ccc(C(F)(F)F)cc3)c2-c2ccccc2S1(=O)=O [2m, 4-Methyl-N-{4-[(methylsulfonyl)amino]phenyl}-1-[4-(trifluoromethyl)phenyl]-1,4-dihydropyrazolo[4,3-c][1,2]benzothiazine-3-carboxamide 5,5-Dioxide] the inhibition at 50 µM (recombinant NS5BCΔ21 1b) was at least 50% and the “antimetabolic effect” value (Huh-5-2 cells [1]) was “displayed antimetabolic effect”.

Work on CN1c2c(C(=O)Nc3ccc(NS(C)(=O)=O)cc3)nn(-c3ccccc3C(F)(F)F)c2-c2ccccc2S1(=O)=O [2n, 4-Methyl-N-{4-[(methylsulfonyl)amino]phenyl}-1-[2-(trifluoromethyl)phenyl]-1,4-dihydropyrazolo[4,3-c][1,2]benzothiazine-3-carboxamide 5,5-Dioxide] yielded an inhibition at 50 µM (recombinant NS5BCΔ21 1b) of under 50%.

In the case of CN1c2c(C(=O)Nc3ccc(NS(C)(=O)=O)cc3)nn(-c3ccc(F)c(F)c3)c2-c2ccccc2S1(=O)=O [2o, 1-(3,4-Difluorophenyl)-4-methyl-N-{4-[(methylsulfonyl)amino]phenyl}-1,4-dihydropyrazolo[4,3-c][1,2]benzothiazine-3-carboxamide 5,5-Dioxide], the “anti-NS5B activity (in words)” value (recombinant NS5BCΔ21 1b) is reported as “less active than compound 1”, the inhibition at 50 µM (recombinant NS5BCΔ21 1b) is reported as at least 50% and the “assessment of anti-HCV activity” value [2] is reported as “false positives”.

For CN1c2c(C(=O)Nc3ccc(NS(C)(=O)=O)cc3)nn(-c3ccc(Cl)c(Cl)c3)c2-c2ccccc2S1(=O)=O [2p, 1-(3,4-Dichlorophenyl)-4-methyl-N-{4-[(methylsulfonyl)amino]phenyl}-1,4-dihydropyrazolo[4,3-c][1,2]benzothiazine-3-carboxamide 5,5-Dioxide], the inhibition at 50 µM (recombinant NS5BCΔ21 1b) was at least 50% and the “antimetabolic effect” value (Huh-5-2 cells [1]) was “displayed antimetabolic effect”.

Compound Cc1ccc(-n2nc(C(=O)Nc3ccc(NS(C)(=O)=O)cc3)c3c2-c2ccccc2S(=O)(=O)N3C)cc1C [2q, 1-(3,4-Dimethylphenyl)-4-methyl-N-{4-[(methylsulfonyl)amino]phenyl}-1,4-dihydropyrazolo[4,3-c][1,2]benzothiazine-3-carboxamide 5,5-Dioxide] has an inhibition at 50 µM (recombinant NS5BCΔ21 1b) of under 50%.

With Cc1ccc(-n2nc(C(=O)Nc3ccc(NS(C)(=O)=O)cc3)c3c2-c2ccccc2S(=O)(=O)N3C)cc1Cl [2r, 1-(3-Chloro-4-methylphenyl)-4-methyl-N-{4-[(methylsulfonyl)amino]phenyl}-1,4-dihydropyrazolo[4,3-c][1,2]benzothiazine-3-carboxamide 5,5-Dioxide] the inhibition at 50 µM (recombinant NS5BCΔ21 1b) was at least 50% and the “antimetabolic effect” value (Huh-5-2 cells [1]) was “displayed antimetabolic effect”.

For CN1c2c(C(=O)Nc3ccc(NS(C)(=O)=O)cc3)nn(-c3ccc(Cl)c(C(F)(F)F)c3)c2-c2ccccc2S1(=O)=O [2s, 1-[4-Chloro-3-(trifluoromethyl)phenyl]-4-methyl-N-{4-[(methylsulfonyl)amino]phenyl}-1,4-dihydropyrazolo[4,3-c][1,2]benzothiazine-3-carboxamide 5,5-Dioxide], the inhibition at 50 µM (recombinant NS5BCΔ21 1b) was under 50% and the “antimetabolic effect” value (Huh-5-2 cells [1]) was “displayed antimetabolic effect”.

CN1c2c(C(=O)Nc3ccc(NS(C)(=O)=O)cc3)n[nH]c2-c2ccccc2S1(=O)=O [2u, 4-Methyl-N-{4-[(Methylsulfonyl)amino]phenyl}-1,4-dihydropyrazolo[4,3-c][1,2]benzothiazine-3-carboxamide 5,5-Dioxide] was tested, and the “anti-NS5B activity (in words)” value (recombinant NS5BCΔ21 1b) was “totally inactive” and the inhibition at 50 µM (recombinant NS5BCΔ21 1b) was under 50%.

In the case of CN1c2c(C(=O)Nc3ccccc3)nn(-c3cccc(F)c3)c2-c2ccccc2S1(=O)=O [compound 3, 1-(3-Fluorophenyl)-4-methyl-N-phenyl-1,4-dihydropyrazolo[4,3-c][1,2]benzothiazine-3-carboxamide 5,5-Dioxide], the “anti-NS5B activity (in words)” value (recombinant NS5BCΔ21 1b) is reported as “inactive” and the “assessment of anti-HCV activity” value [2] is reported as “false positives”.

For CN1c2c(C(=O)Nc3ccc(OCC(N)=O)cc3)nn(-c3cccc(F)c3)c2-c2ccccc2S1(=O)=O [compound 4, N-[4-(Amino-2-oxoethoxy)phenyl]-1-(3-fluorophenyl)-4-methyl-1,4-dihydropyrazolo[4,3c][1,2]benzothiazine-3-carboxamide 5,5-Dioxide], the “anti-NS5B activity (in words)” value (recombinant NS5BCΔ21 1b) was “inactive” and the “antimetabolic effect” value (Huh-5-2 cells [1]) was “displayed antimetabolic effect”.

In the case of CN1c2c(NC(=O)c3ccc(NS(C)(=O)=O)cc3)nn(-c3cccc(F)c3)c2-c2ccccc2S1(=O)=O [compound 5, N-[1-(3-Fluorophenyl)-4-methyl-5,5-dioxido-1,4-dihydropyrazolo[4,3-c][1,2]benzothiazin-3-yl]-4-(methylsulfonyl)aminobenzamide], the “anti-NS5B activity (in words)” value (recombinant NS5BCΔ21 1b) is reported as “inactive”.

Source: article PMC4203399 (Journal of Medicinal Chemistry, 2014)
